{"source": "patent US20230139944A1", "about": "“TARGETING ALPHA3BETA1 INTEGRIN FOR TREATMENT OF CANCER AND OTHER DISEASES” (Board of Regents, The University of Texas System, priority 2019, published 2023)", "key": {"[1]": {"tested_on": "FAK and PYK2", "assay": "Col1 homotrimer-induced signaling with FAK inhibitor, Western blotting", "assay_type": "cell-based, mouse", "settings": "VS-4718 1 μM, 16 hours, KPPC; Col1^pdxKO cancer cells, col1 homotrimers 50 μg/mL"}, "[2]": {"tested_on": "activation of FAK, AKT, and ERK in KPPC; Col1^pdxKO cancer cells", "assay": "Col1 homotrimer-induced pro-survival signaling examined by Western blotting", "assay_type": "cell-based, mouse", "settings": "VS-4718 1 μM, 16 hours, col1 homotrimers 50 μg/mL", "description": "FIGS. 1A-1D. Type I collagen homotrimers induce pro-survival signaling through α3β1 integrin. KPPC; Col1^pdxKO cancer cells were transfected with siRNAs of DDR1 (A,B), integrin β1 (C), or integrin α3 (D). Cells were then incubated with DMEM medium with 1% FBS for 6 hours before the treatment with col1 homotrimers or heterotrimers (50 μg/mL) for 16 hours. Cells were harvested, lysed, and examined for indicated proteins by Western blotting.\n(§1) FIGS. 2A-2H. Type I collagen homotrimers induce persistent proliferation signals via integrins. (A,B) KPPC; Col1^pdxKO cancer cells were transfected with siRNAs of integrins β1 (A), α1, α2, or α3 (B). Cells were then incubated with DMEM medium with 1% FBS for 6 hours before the treatment with col1 homotrimers or heterotrimers (50 μg/mL) for 16 hours. Cells were harvested, lysed, and examined by Western blotting. (C) Expression levels of selected integrin subunits in KPPC; Col1^pdxKO cancer cells. (D) Expression levels of selected integrin subunits human PDAC cell lines (Panc1, BxPC3, MiaPaca2, PSN1, HPAC, CAPAN1) based on RNA-seq data from the Broad Institute Cancer Cell Line Encyclopedia (CCLE) database. RMA (Robust Multi-array Average algorithm) normalization was used and data are the log 2 gene expression signal. […] Percent area of ADM and PanIN lesions was quantified. * P<0.05. […]"}, "[3]": {"tested_on": "KPPC mice (ADM and PanIN lesions)", "assay": "FAK inhibitor (FAKi) treatment in vivo, H&E-stained pancreas sections", "parameters": "species or system mouse", "settings": "oral gavage 50 mg/kg twice per day for 7 days", "description": "as §1, with “signal. (E) Expression profile of integrin α3 (Itga3) among various cell clusters from KPPC tumors, as shown in t-SNE plot using the single cell RNA sequencing analysis. (F) Representative images of integrin α3 IHC staining on KPPC tumor sections. Scale bar: 100 μm. (G) KPPC; Col1^pdxKO cancer cells growing in 6-well plates were cultured with regular medium (DMEM with 10% FBS) to reach 60% confluence.” for “signal.”"}}}
{"smiles": "CNC(=O)c1ccccc1Nc1cc(Nc2ccc(N3CCOCC3)cc2OC)ncc1C(F)(F)F", "note": "[VS-4718]", "values": [{"measurement": "inhibition of FAK and PYK2", "setting": "[1]", "result": "inhibited FAK and PYK2"}, {"measurement": "col1 homotrimer induced activation of FAK, AKT, and ERK", "setting": "[2]", "result": "abrogated"}, {"measurement": "early PanIN progression (percent area of ADM and PanIN lesions)", "setting": "[3]", "result": "inhibited early PanIN progression"}]}
